Data from PubChem BioAssay AID1963433 (Molecular Pharmacology Branch, DTP, NCI, 2024).

Test system: 772245-204-R-J1-PDC complex spheroid growth
Experiment: Anticancer human tumor 772245-204-R-J1-PDC patient-derived rhabdomyosarcoma cell line growth inhibition [Asc]
Details: for IC50: curve of first compound; for viability, T/C: stronger effect = lower value
Method: Multicellular complex tumor spheroid response to apoptosis pathway targeting inhibitors Alrizomadlin, Pelcitoclax, and Dasminapant in combination with a variety of drugs and investigational agents in selected tumor cell lines
The MDM2 inhibitor alrizomadlin, the Bcl-2/Bcl-xL inhibitor pelcitoclax, and the IAPs inhibitor dasminapant were evaluated both individually and in combination with standard of care and investigational anticancer small molecules within a complex spheroid model of solid tumors. . Complex spheroids include a stromal component modeled by human endothelial cells (HUVEC) and fibroblasts modeled by human mesenchymal stem cells (MSCs). The concentration ranges selected for each drug and investigational agent were based upon clinically achievable concentrations if the clinical Cmax of the agent was known.
Compounds. The drugs and investigational agents: alrizomadlin (APG-115; NSC831270), pelcitoclax (APG-1252; NSC835773), dasminapant (APG-1387;NSC834197), TAK-243 (NSC785004), copanlisib (NSC809693), olaparib (NSC753686), talazoparib (NSC767125), cobimetinib (NSC 768068), eltanexor (KPT-8602, NSC 794443), abemaciclib (NSC 768073), sotorasib (NSC818433), adagrasib (NSC 831453), MRTX-1133 (NSC 836407), Iadademestat (ORY1001, NSC 806812), and RMC-4630 (NSC839698), were obtained from the NCI Developmental Therapeutics Program Chemical Repository. The FDA-approved anticancer drug set is available from the Developmental Therapeutics Program at https://dtp.cancer.gov/organization/dscb/obtaining/available plates.htm. […] The stock solutions were prepared in dimethyl sulfoxide (DMSO, Sigma-Aldrich, St. Louis, MO, cat. D2650) at 800-fold the tested concentration and stored at -70 degrees C prior to their use. All drugs and investigational agents were tested over a range starting from a high concentration at or near the clinical Cmax and decreasing in half-log increments. If the clinical Cmax for an agent had not been determined, the highest concentration tested was 10 microM.
The patient-derived cancer (PDC) cell lines include five colon adenocarcinomas: 186277-243-T-J2-PDC, 616215-338-R-J1-PDC, 439559-082-T-J2-PDC, 463943-066-T-J2-PDC, and 519858-162-T-J1-PDC; three pancreatic carcinomas: 323965-272-R-J2-PDC, 521955-158-R6-J3-PDC, and 521955-158-R2-J5-PDC; two uterine sarcomas: 327498-152-R-J2-PDC and 993429-296-R-J1-PDC; two rhabdomyosarcomas: 755483-174-R-J1-PDC and 772245-204-R-J1-PDC; two soft tissue sarcomas: 126254-015-R-J1-PDC and 494315-158-R-J1-PDC; two malignant fibrous histiocytomas: 317291-083-R-J1-PDC and 596521-263-R-J1-PDC; two breast carcinomas: 171881-019-R-J1-PDC and 885512-296-R-J2-PDC; and one ovarian carcinoma: 6556581-035-R-J-PDC were obtained from the NCI PDMR, (https://pdmr.cancer.gov). The established cell lines HSSY-2 synovial sarcoma (RRID:CVCL 8719), SYO-1 synovial sarcoma (RRID:CVCL_7146), MPNST malignant peripheral neural sheath tumor were obtained from the Sloan Kettering Institute. The following established cell lines were purchased from the American Type Culture Collection (ATCC, Manassas, VA), Sor the received from the NCI repository:, PANC-1 pancreatic carcinoma (CRL-1469, RRID:CVCL_0480), OVCAR-5 ovarian carcinoma (RRID:CVCL_1628), OVCAR-8 ovarian carcinoma (RRID:CVCL_1629), , MCF-7 breast carcinoma (CRL-12584, RRID:CVCL_0031), MDA-MB-231 breast carcinoma (CRL-12532, RRID:CVCL_0062), NCI-H1876 small cell lung carcinoma (CRL-5902, RRID:CVCL_1503), NCI-H510A small cell lung carcinoma (HTB-184, RRID:CVCL_1565), NCI-H1417 (CRL-5869, RRID:CVCL_1469), and NCI-H196 small cell lung carcinoma (CRL-5823, RRID:CVCL_1509). Dr. Peter Houghton (Greehey Children's Cancer Research Institute, University of Texas Health Science Center, San Antonio, TX) provided Rh-18 rhabdomyosarcoma (RRID:CVCL_1659). Pooled donor human umbilical vein endothelial cells (HUVEC, Lonza, cat. CC-2519) and human mesenchymal stem cells (hMSC, Lonza, cat. PT-2501) were purchased from Lonza (Walkersville, MD).
Cell Culture. […]

[1] = second compound 0.03 µM, first compound 0.00316 µM
[2] = second compound 0.03 µM, first compound 0.01 µM
[3] = second compound 0.03 µM, first compound 0.0316 µM
[4] = second compound 0.03 µM, first compound 0.1 µM
[5] = second compound 0.0949 µM, first compound 0.00316 µM
[6] = second compound 0.0949 µM, first compound 0.01 µM
[7] = second compound 0.0949 µM, first compound 0.0316 µM
[8] = second compound 0.0949 µM, first compound 0.1 µM
[9] = second compound 0.3 µM, first compound 0.00316 µM
[10] = second compound 0.3 µM, first compound 0.01 µM
[11] = second compound 0.3 µM, first compound 0.0316 µM
[12] = second compound 0.3 µM, first compound 0.1 µM
[13] = second compound 0.949 µM, first compound 0.00316 µM
[14] = second compound 0.949 µM, first compound 0.01 µM
[15] = second compound 0.949 µM, first compound 0.0316 µM
[16] = second compound 0.949 µM, first compound 0.1 µM
[17] = second compound 3 µM, first compound 0.00316 µM
[18] = second compound 3 µM, first compound 0.01 µM
[19] = second compound 3 µM, first compound 0.0316 µM
[20] = second compound 3 µM, first compound 0.1 µM
[21] = second compound 0.03 µM, first compound 0.316 µM
[22] = second compound 0.03 µM, first compound 1 µM
[23] = second compound 0.0949 µM, first compound 0.316 µM
[24] = second compound 0.0949 µM, first compound 1 µM
[25] = second compound 0.3 µM, first compound 0.316 µM
[26] = second compound 0.3 µM, first compound 1 µM
[27] = second compound 0.949 µM, first compound 0.316 µM
[28] = second compound 0.949 µM, first compound 1 µM
[29] = second compound 3 µM, first compound 0.316 µM
[30] = second compound 3 µM, first compound 1 µM
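Further: compound exposure lasted seven days.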
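Wherever viability, T/C is given: 100% = DMSO vehicle control viability.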

Row | IC50 (second compound 0.03 µM) | IC50 (second compound 0.0949 µM) | IC50 (second compound 0.3 µM) | IC50 (second compound 0.949 µM) | IC50 (second compound 3 µM) | SMILES | viability, T/C [1] | viability, T/C [2] | viability, T/C [3] | viability, T/C [4] | viability, T/C [5] | viability, T/C [6] | viability, T/C [7] | viability, T/C [8] | viability, T/C [9] | viability, T/C [11] | viability, T/C [12] | viability, T/C [15] | viability, T/C [16] | viability, T/C [19] | viability, T/C [20] | further results
1 | > 100 nM | > 100 nM | > 100 nM | > 100 nM | > 100 nM | Cn1ncnc1[C@H]1c2n[nH]c(=O)c3cc(F)cc(c23)N[C@@H]1c1ccc(F)cc1 + CCN1C(C(=O)NC23CCC(C(=O)O)(CC2)CC3)C(c2cccc(Cl)c2F)C2(C(=O)Nc3cc(Cl)ccc32)C12CCCCC2 | 95% | 85.2% | 86.3% | 81.9% | 110% | 88.2% | 88.5% | 91.9% | 107% | 93% | 89.6% | 75.4% | 76.6% | 70.8% | 62.5% | viability, T/C (second compound 0.03 µM, first compound 0.000316 µM): 118%; viability, T/C (second compound 0.03 µM, first compound 0.001 µM): 106%; viability, T/C (second compound 0.0949 µM, first compound 0.000316 µM): 103%; viability, T/C (second compound 0.0949 µM, first compound 0.001 µM): 112%; viability, T/C (second compound 0.3 µM, first compound 0.000316 µM): 116%; viability, T/C (second compound 0.3 µM, first compound 0.001 µM): 115%; viability, T/C [10]: 95.2%; viability, T/C (second compound 0.949 µM, first compound 0.000316 µM): 94.2%; viability, T/C (second compound 0.949 µM, first compound 0.001 µM): 99.1%; viability, T/C [13]: 119%; viability, T/C [14]: 92.3%; viability, T/C (second compound 3 µM, first compound 0.000316 µM): 82.7%; viability, T/C (second compound 3 µM, first compound 0.001 µM): 94%; viability, T/C [17]: 75.8%; viability, T/C [18]: 65.9%
2 | > 10000 nM | > 10000 nM | > 10000 nM | > 10000 nM | > 10000 nM | O=C(c1cc(Cc2n[nH]c(=O)c3ccccc23)ccc1F)N1CCN(C(=O)C2CC2)CC1 + CCN1C(C(=O)NC23CCC(C(=O)O)(CC2)CC3)C(c2cccc(Cl)c2F)C2(C(=O)Nc3cc(Cl)ccc32)C12CCCCC2 |  |  | 102% | 113% |  |  | 108% | 113% |  | 121% | 115% | 101% | 92.9% | 77.2% | 80.4% | viability, T/C [21]: 93.7%; viability, T/C [22]: 95.2%; viability, T/C (second compound 0.03 µM, first compound 3.16 µM): 87.3%; viability, T/C (second compound 0.03 µM, first compound 10 µM): 70.1%; viability, T/C [23]: 97.2%; viability, T/C [24]: 100%; viability, T/C (second compound 0.0949 µM, first compound 3.16 µM): 79.7%; viability, T/C (second compound 0.0949 µM, first compound 10 µM): 72%; viability, T/C [25]: 102%; viability, T/C [26]: 93.1%; viability, T/C (second compound 0.3 µM, first compound 3.16 µM): 92%; viability, T/C (second compound 0.3 µM, first compound 10 µM): 69.2%; viability, T/C [27]: 99.6%; viability, T/C [28]: 88.3%; viability, T/C (second compound 0.949 µM, first compound 3.16 µM): 73.3%; viability, T/C (second compound 0.949 µM, first compound 10 µM): 63.8%; viability, T/C [29]: 84.1%; viability, T/C [30]: 74.7%; viability, T/C (second compound 3 µM, first compound 3.16 µM): 55.8%; viability, T/C (second compound 3 µM, first compound 10 µM): 62.5%
3 | > 1000 nM | > 1000 nM | > 1000 nM | > 1000 nM | > 1000 nM | O=C(c1ccc(F)c(F)c1Nc1ccc(I)cc1F)N1CC(O)([C@@H]2CCCCN2)C1 + CCN1C(C(=O)NC23CCC(C(=O)O)(CC2)CC3)C(c2cccc(Cl)c2F)C2(C(=O)Nc3cc(Cl)ccc32)C12CCCCC2 | 115% | 109% | 108% | 112% | 113% | 91.5% | 108% | 105% | 102% | 98.6% | 106% | 115% | 98.5% | 85.1% | 100% | viability, T/C [21]: 100%; viability, T/C [22]: 50.8%; viability, T/C [23]: 115%; viability, T/C [24]: 70.6%; viability, T/C [10]: 121%; viability, T/C [25]: 106%; viability, T/C [26]: 73.9%; viability, T/C [13]: 110%; viability, T/C [14]: 109%; viability, T/C [27]: 105%; viability, T/C [28]: 62.3%; viability, T/C [17]: 90.9%; viability, T/C [18]: 87.1%; viability, T/C [29]: 88.5%; viability, T/C [30]: 53.3%
